{"source": "patent US7333894B2", "about": "“Methods for the diagnosis of hemodialysis patients and utilization of such methods to improve the administration of intravenous levocarnitine treatments to hemodialysis patients” (Sigma-Tau Pharmaceuticals, Inc., priority 2002, dated 2008)", "origin": "cited, not measured here", "key": {"[1]": {"details": "hemodialysis patient, one dialysis session"}, "[2]": {"details": "intravenous administration at the end of a dialysis session, ESRD patients"}}, "data": [{"compound": "C[N+](C)(C)C[C@H](O)CC(=O)[O-]", "note": "[carnitine, levocarnitine]", "values": [{"measurement": "carnitine present in the plasma removed during a dialysis session", "setting": "[1]", "value": "more than 70%"}, {"measurement": "time for plasma carnitine levels to return to pre-dialysis baseline levels", "setting": "[2]", "value": "10 to 24", "unit": "h"}]}]}
